Measured values as given in ChEMBL document CHEMBL4680155, “One-pot synthesis and molecular docking of some new spiropyranindol-2-one derivatives as immunomodulatory agents and in vitro antimicrobial potential with DNA gyrase inhibitor” (Eur J Med Chem, 2020).
In brackets after ≈: the same amount, converted by molar mass.

What was measured:
Escherichia coli [1] = test: Antibacterial activity against multidrug resistant Escherichia coli ATCC BAA-196 assessed as reduction in bacterial growth incubated for 1 day by paper disk diffusion method; format: functional; settings: ATCC BAA-196, 24 h
Enterococcus faecalis [2] = test: Antibacterial activity against Enterococcus faecalis ATCC 29212 assessed as diameter of inhibition zone at 0.5 mg/ml incubated for 24 hrs by agar diffusion method; format: functional; settings: read-out: DIZ
Escherichia coli [3] = test: Antibacterial activity against multidrug resistant Escherichia coli ATCC BAA-196 assessed as diameter of inhibition zone at 0.5 mg/ml incubated for 24 hrs by agar diffusion method; format: functional; settings: read-out: DIZ
Staphylococcus aureus [4] = test: Antibacterial activity against multidrug resistant Staphylococcus aureus ATCC 33591 assessed as reduction in bacterial growth incubated for 1 day by paper disk diffusion method; format: functional; settings: ATCC 33591, 24 h
Pseudomonas aeruginosa [5] = test: Antibacterial activity against multidrug resistant Pseudomonas aeruginosa ATCC BAA-2111 assessed as reduction in bacterial growth incubated for 1 day by paper disk diffusion method; format: functional; settings: ATCC BAA-2111, 24 h
Pseudomonas aeruginosa [6] = test: Bactericidal activity against Pseudomonas aeruginosa ATCC BAA-2111 incubated for 24 hrs followed by transferring to freshly prepared broth medium and measured after 24 hrs by broth microdilution assay; format: functional; settings: time 48 hrs
Salmonella typhimurium [7] = test: Antibacterial activity against Salmonella typhi ATCC 6539 assessed as reduction in bacterial growth incubated for 1 day by paper disk diffusion method; format: functional, Salmonella enterica subsp. enterica serovar Typhimurium; settings: Salmonella enterica, ATCC 6539, 24 h
Pseudomonas aeruginosa [8] = test: Antibacterial activity against multidrug resistant Pseudomonas aeruginosa ATCC BAA-2111 assessed as diameter of inhibition zone at 0.5 mg/ml incubated for 24 hrs by agar diffusion method; format: functional; settings: read-out: DIZ
Enterococcus faecalis [9] = test: Bactericidal activity against Enterococcus faecalis ATCC 29212 incubated for 24 hrs followed by transferring to freshly prepared broth medium and measured after 24 hrs by broth microdilution assay; format: functional; settings: time 48 hrs
Escherichia coli [10] = test: Antibacterial activity against Escherichia coli ATCC 25922 assessed as reduction in bacterial growth incubated for 1 day by paper disk diffusion method; format: functional; settings: ATCC 25922, 24 h
Aspergillus brasiliensis [11] = test: Antifungal activity against Aspergillus brasiliensis ATCC 16404 assessed as diameter of inhibition zone at 0.5 mg/ml incubated for 72 hrs by agar diffusion method; format: functional; settings: read-out: DIZ
Staphylococcus aureus [12] = test: Bactericidal activity against Staphylococcus aureus ATCC 29213 incubated for 24 hrs followed by transferring to freshly prepared broth medium and measured after 24 hrs by broth microdilution assay; format: functional; settings: time 48 hrs
Escherichia coli [13] = test: Bactericidal activity against Escherichia coli ATCC BAA-196 incubated for 24 hrs followed by transferring to freshly prepared broth medium and measured after 24 hrs by broth microdilution assay; format: functional; settings: time 48 hrs
Neutrophil = test: Immunomodulatory activity in human neutrophils infected with bacteria assessed as increase in bacterial killing by measuring reduced NBT incubated for 30 mins by NBT dye based spectrophotometry; format: functional; set-up: concentration or dose not given beside the values; settings: 0.5 h
Enterococcus faecalis [14] = test: Antibacterial activity against Enterococcus faecalis ATCC 29212 assessed as reduction in bacterial growth incubated for 1 day by paper disk diffusion method; format: functional; settings: ATCC 29212, 24 h
Staphylococcus aureus [15] = test: Bactericidal activity against Staphylococcus aureus ATCC 33591 incubated for 24 hrs followed by transferring to freshly prepared broth medium and measured after 24 hrs by broth microdilution assay; format: functional; settings: time 48 hrs
Candida albicans [16] = test: Antifungal activity against Candida albicans ATCC 10231 assessed as reduction in bacterial growth incubated for 1 day by paper disk diffusion method; format: functional; settings: ATCC 10231, 24 h
Staphylococcus aureus [17] = test: Bactericidal activity against Staphylococcus aureus ATCC 43300 incubated for 24 hrs followed by transferring to freshly prepared broth medium and measured after 24 hrs by broth microdilution assay; format: functional; settings: time 48 hrs
Escherichia coli [18] = test: Antibacterial activity against Escherichia coli ATCC 25922 assessed as diameter of inhibition zone at 0.5 mg/ml incubated for 24 hrs by agar diffusion method; format: functional; settings: read-out: DIZ
Staphylococcus aureus [19] = test: Antibacterial activity against multidrug resistant Staphylococcus aureus ATCC 43300 assessed as reduction in bacterial growth incubated for 1 day by paper disk diffusion method; format: functional; settings: ATCC 43300, 24 h
Staphylococcus aureus [20] = test: Antibacterial activity against Staphylococcus aureus ATCC 29213 assessed as reduction in bacterial growth incubated for 1 day by paper disk diffusion method; format: functional; settings: ATCC 29213, 24 h
Salmonella typhimurium [21] = test: Bactericidal activity against Salmonella typhi ATCC 6539 incubated for 24 hrs followed by transferring to freshly prepared broth medium and measured after 24 hrs by broth microdilution assay; format: functional, Salmonella enterica subsp. enterica serovar […]; settings: Salmonella enterica, time 48 hrs
Aspergillus brasiliensis [22] = test: Antifungal activity against Aspergillus brasiliensis ATCC 16404 assessed as reduction in bacterial growth incubated for 3 days by paper disk diffusion method; format: functional; settings: ATCC 16404, 72 h, time 3 day
Staphylococcus aureus [23] = test: Antibacterial activity against Staphylococcus aureus ATCC 29213 assessed as diameter of inhibition zone at 0.5 mg/ml incubated for 24 hrs by agar diffusion method; format: functional; settings: read-out: DIZ
Staphylococcus aureus [24] = test: Antibacterial activity against multidrug resistant Staphylococcus aureus ATCC 43300 assessed as diameter of inhibition zone at 0.5 mg/ml incubated for 24 hrs by agar diffusion method; format: functional; settings: read-out: DIZ
DNA gyrase = DNA gyrase (Staphylococcus aureus, UniProt P0A0K8+P20831); test: Inhibition of Staphylococcus aureus DNA gyrase using relaxed pBR322 DNA as substrate incubated for 45 mins by agarose gel electrophoresis method; format: protein-complex assay
Staphylococcus aureus [25] = test: Antibacterial activity against multidrug resistant Staphylococcus aureus ATCC 33591 assessed as diameter of inhibition zone at 0.5 mg/ml incubated for 24 hrs by agar diffusion method; format: functional; settings: read-out: DIZ
Escherichia coli [26] = test: Bactericidal activity against Escherichia coli ATCC 25922 incubated for 24 hrs followed by transferring to freshly prepared broth medium and measured after 24 hrs by broth microdilution assay; format: functional; settings: time 48 hrs
Candida albicans [27] = test: Fungicidal activity against Candida albicans ATCC 10231 incubated for 24 hrs followed by transferring to freshly prepared broth medium and measured after 24 hrs by broth microdilution assay; format: functional; settings: time 48 hrs
Aspergillus brasiliensis [28] = test: Fungicidal activity against Aspergillus brasiliensis ATCC 16404 incubated for 72 hrs followed by transferring to freshly prepared broth medium and measured after 24 hrs by broth microdilution assay; format: functional; settings: time 96 hrs
Salmonella typhimurium [29] = test: Antibacterial activity against Salmonella typhi ATCC 6539 assessed as diameter of inhibition zone at 0.5 mg/ml incubated for 24 hrs by agar diffusion method; format: functional, Salmonella enterica subsp. enterica serovar Typhimurium; settings: Salmonella enterica, read-out: DIZ
Candida albicans [30] = test: Antifungal activity against Candida albicans ATCC 10231 assessed as diameter of inhibition zone at 0.5 mg/ml incubated for 24 hrs by agar diffusion method; format: functional; settings: read-out: DIZ

Sequence of DNA gyrase (P0A0K8 whole entry, the tested form may be a part): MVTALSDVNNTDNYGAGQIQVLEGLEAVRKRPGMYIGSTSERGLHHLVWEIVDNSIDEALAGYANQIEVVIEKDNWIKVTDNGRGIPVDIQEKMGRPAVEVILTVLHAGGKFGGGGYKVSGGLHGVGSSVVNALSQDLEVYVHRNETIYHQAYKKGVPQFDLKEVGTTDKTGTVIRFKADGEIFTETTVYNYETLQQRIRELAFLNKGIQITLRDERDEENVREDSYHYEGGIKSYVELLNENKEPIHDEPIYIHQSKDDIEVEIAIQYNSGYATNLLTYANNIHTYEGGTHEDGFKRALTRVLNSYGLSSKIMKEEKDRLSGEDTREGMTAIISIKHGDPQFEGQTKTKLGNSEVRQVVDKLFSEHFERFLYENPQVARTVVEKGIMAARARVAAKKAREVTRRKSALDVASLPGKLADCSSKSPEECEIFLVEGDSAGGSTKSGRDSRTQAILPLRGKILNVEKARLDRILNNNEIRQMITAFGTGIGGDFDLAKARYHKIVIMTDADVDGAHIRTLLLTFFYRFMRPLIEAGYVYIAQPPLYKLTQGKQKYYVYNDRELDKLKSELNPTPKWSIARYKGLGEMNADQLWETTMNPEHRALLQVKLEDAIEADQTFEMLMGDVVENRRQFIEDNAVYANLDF
Sequence of DNA gyrase (P20831 whole entry, the tested form may be a part): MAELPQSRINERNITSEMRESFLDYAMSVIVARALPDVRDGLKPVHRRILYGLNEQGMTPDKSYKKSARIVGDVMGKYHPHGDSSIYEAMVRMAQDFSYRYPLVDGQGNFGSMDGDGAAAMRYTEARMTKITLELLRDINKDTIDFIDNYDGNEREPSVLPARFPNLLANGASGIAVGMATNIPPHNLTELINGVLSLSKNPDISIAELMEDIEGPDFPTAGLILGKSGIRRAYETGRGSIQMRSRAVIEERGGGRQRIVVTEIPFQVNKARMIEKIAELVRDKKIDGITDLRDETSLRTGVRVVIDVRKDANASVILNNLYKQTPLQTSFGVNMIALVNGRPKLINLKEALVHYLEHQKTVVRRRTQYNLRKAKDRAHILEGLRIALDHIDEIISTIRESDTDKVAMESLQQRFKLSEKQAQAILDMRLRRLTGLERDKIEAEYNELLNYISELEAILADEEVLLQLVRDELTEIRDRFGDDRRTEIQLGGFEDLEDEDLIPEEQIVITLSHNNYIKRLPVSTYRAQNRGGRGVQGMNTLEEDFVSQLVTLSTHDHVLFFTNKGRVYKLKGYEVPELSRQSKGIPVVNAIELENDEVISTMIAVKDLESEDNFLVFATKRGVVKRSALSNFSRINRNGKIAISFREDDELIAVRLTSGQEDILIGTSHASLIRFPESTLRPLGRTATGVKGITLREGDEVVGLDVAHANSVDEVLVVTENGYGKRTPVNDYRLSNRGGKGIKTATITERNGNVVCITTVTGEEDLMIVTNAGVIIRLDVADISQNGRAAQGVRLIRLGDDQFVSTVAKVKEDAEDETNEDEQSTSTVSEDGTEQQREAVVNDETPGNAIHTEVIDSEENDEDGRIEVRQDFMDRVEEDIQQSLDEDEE

CCOC(=O)/C(C#N)=C1\C(=O)Nc2ccc(S(=O)(=O)N3CCOCC3)cc21
MIC (Escherichia coli [1]): 1.57 µg/mL (≈ 4.01 µM)
zone of inhibition at 500 µg/mL (Enterococcus faecalis [2]): 24 mm
zone of inhibition at 500 µg/mL (Escherichia coli [3]): 26 mm
MIC (Staphylococcus aureus [4]): 1.95 µg/mL (≈ 4.98 µM)
MIC (Pseudomonas aeruginosa [5]): 3.9 µg/mL (≈ 9.96 µM)
MBC (Pseudomonas aeruginosa [6]): 7.8 µg/mL (≈ 19.9 µM)
MIC (Salmonella typhimurium [7]): 31.2 µg/mL (≈ 79.8 µM)
zone of inhibition at 500 µg/mL (Pseudomonas aeruginosa [8]): 24 mm
MBC (Enterococcus faecalis [9]): 7.8 µg/mL (≈ 19.9 µM)
MIC (Escherichia coli [10]): 3.9 µg/mL (≈ 9.96 µM)
zone of inhibition at 500 µg/mL (Aspergillus brasiliensis [11]): 18 mm
MBC (Staphylococcus aureus [12]): 21.9 µg/mL (≈ 55.9 µM)
MBC (Escherichia coli [13]): 3.14 µg/mL (≈ 8.02 µM)
Activity (Neutrophil): 152.3%
MIC (Enterococcus faecalis [14]): 3.9 µg/mL (≈ 9.96 µM)
MBC (Staphylococcus aureus [15]): 3.7 µg/mL (≈ 9.45 µM)
MIC (Candida albicans [16]): 6.25 µg/mL (≈ 16 µM)
MBC (Staphylococcus aureus [17]): 3.12 µg/mL (≈ 7.97 µM)
zone of inhibition at 500 µg/mL (Escherichia coli [18]): 26 mm
MIC (Staphylococcus aureus [19]): 1.95 µg/mL (≈ 4.98 µM)
MIC (Staphylococcus aureus [20]): 15.6 µg/mL (≈ 39.9 µM)
MBC (Salmonella typhimurium [21]): 62.5 µg/mL (≈ 160 µM)
MIC (Aspergillus brasiliensis [22]): 88.3 µg/mL (≈ 226 µM)
zone of inhibition at 500 µg/mL (Staphylococcus aureus [23]): 25 mm
zone of inhibition at 500 µg/mL (Staphylococcus aureus [24]): 25 mm
IC50 (DNA gyrase): 27 µM
zone of inhibition at 500 µg/mL (Staphylococcus aureus [25]): 25 mm
MBC (Escherichia coli [26]): 7.8 µg/mL (≈ 19.9 µM)
MFC (Candida albicans [27]): 10.6 µg/mL (≈ 27.1 µM)
MFC (Aspergillus brasiliensis [28]): 124 µg/mL (≈ 316 µM)
zone of inhibition at 500 µg/mL (Salmonella typhimurium [29]): 24 mm
zone of inhibition at 500 µg/mL (Candida albicans [30]): 23 mm
